Consider 7 compounds from patent US4138485A, “Phenylalanine derivatives” (Kyowa Hakko Kogyo Kabushiki Kaisha, priority 1976, dated 1979).

In data set [1] the test system is cholesterol and triglyceride in the serum. Briefly: Lipid lowering activity in cynomolgus monkeys. Format: in vivo, cynomolgus monkeys (male, born in Malaysia). As to conditions: 100 mg/kg/day oral, 10 days. As for the experimental part:
(6) Lipid lowering activity in cynomolgus monkeys:
6 cynomolgus monkeys (male, born in Malaysia, weight -- 2.5 to 3.9 kg) were used for this test. All monkies were breeded in individual cages at a temperature from 23° to 25° C. and fed with a solid diet for monkey (available from Oriental Yeast K.K., Japan) and sweet potatoes every morning and with apples and bananas from time to time. The monkeys were divided into 3 groups, each consisting of 2 monkeys, to orally and compulsively administer the test compound in an amount of 100 mg/kg/day once in every morning for 10 days. At 11 days after the first administration, before feeding the diet in early morning blood samples were collected from the saphenae of the monkeys to determine cholesterol and triglyceride in a similar manner to that described above. The ratio of lowering cholesterol (RCL) or triglyceride (RLT) was calculated by the following formula. [formula] wherein A is the average amount of the cholesterol or triglyceride in the serum before administration, and B is the corresponding amont after administration for 10 days.
After an interval of 5 weeks, another compound was administered to determine cholesterol or triglyceride in a similar manner to that described above. After a further interval of 5 weeks, a similar procedure was repeated by using another compound to determine cholesterol or triglyceride.

Data set [2] concerns hyperlipemia induced by Triton. Briefly: Cholesterol-lowering activity on hyperlipemia induced by Triton in mice. Format: in vivo, mice (male dd-strain). As to conditions: Mus musculus, po, 43 h, read-out: Ratio of the reduction of cholesterol. Here is the method: (2) Cholesterol-Lowering activity on hyperlipemia induced by Triton in mice:
38 Groups, each consisting of 9 mice (male dd-strain, weight -- 19 to 21 g), were used for the test and control groups. […] Immediately after the administration and also after 20 hours from the administration of Triton, the mice were orally administered with 100 mg/kg of the compound shown in Table 3. 43 hours after the administration of Triton, the blood samples were collected by decapitation and then the corpuscle was removed by centrifugation. Cholesterol in the serum was determined by Zurkowski's method modified by Shibata (color of the test solution was developed by using sulfoalicyclic acid, acetic acid and sulfuric acid and the optical density of the solution was determined at 620 mμ.

Data set [3] has as its system glycerol induced hyperlipemia. In words: Lipid lowering effects on glycerol induced hyperlipemia in rats. Format: in vivo, rats (male Wistar strain). The settings on record: 0.25% in diet. Here is the method:
(5) Lipid lowering effects on glycerol induced hyperlipemia in rats: The test was carried out in a similar method to that by […] et al [Life Science, 3, 1021 (1964)] . A group consisting of 10 rats (male Wistar strain, weight - 190 to 210 g) was used for each of the test and control groups. Hyperlipemia occurred by feeding the rats ad libitum with water containing 15% (by volume) of glycerol. […] After this, the blood samples were collected by decapitation and the serum was separated by centrifugation.

For data set [4], the system named is Triglyceride, phospholipid and free fatty acid in the serum. In words: Determination of triglyceride, phospholipid and free fatty acid in the serum of normal rats. Format: in vivo, rats (Wistar strain). Here is the method:
(ii) Determination of triglyceride, phospholipid and free fatty acid in the serum of normal rats of Wistar strain: Clofibrate and Compounds 1 and 2 were tested in a similar manner to that described in (i). Triglyceride, phospholipid and free fatty acid in the serum were determined in the following manner to give the results shown in Table 5. (a) Determination of triglyceride: Triglyceride was determined by acetylacetone method [Kazuo Matsumiya et al "Rinsho Byori", Vol. 18, page 383 (1970), Japan] in the following manner. Isopropyl alcohol was added to the test solution of the serum to extract triglyceride which was then saponified with potassium hydroxide to give glycerol. The glycerol was oxidized by using sodium salt of methaperiodic acid to convert it into formaldehyde. Color of the test solution was developed by acetylacetone and the optical density at 420 mμ was determined. (b) Determination of phospholipid: "Phospholipid Test Wako", a reagent available from Wako Junyaku K.K., Japan, was used for the determination of phospholipid in the following manner according to a similar manner to that described in "Rinsho Byori", Vol. 17, page 389 (1969), Japan, by Atsuo […] et al. Trichloroacetic acid was added to the serum to give precipitates of lipoprotein which were then added with sulfuric acid and potassium permanganate to form phosphoric acid. Color of the test solution was developed by ammonium molybdate and the optical density was determined at 660 mμ. (c) Determination of free fatty acid: Laurell's method [CLin. Chim. Acta. 16, 57 (1967)] was used for determination in the following manner. […] After shaking for 5 minutes, the solution was centrifuged. 5 Ml of the supernatant was put into another tube and was added with 2 ml of copper reagent. […] The optical density at 550 mμ was determined.

Data set [5] relates to hyperlipemia induced by Triton. Briefly: Effect on hyperlipemia induced by Triton in rats: activity in the decreasing phase. Format: in vivo, rats (male Wistar strain). Here is the method:
(§1) (4) Effect on hyperlipemia induced by Triton in rats:
(§2) 3 Groups, each consisting of 9 rats (male Wistar strain, weight -- 200 to 240 g) fasted for 24 hours were used for this test. Each rat was administered intravenously with 200 mg/kg of Triton (WR-1339), followed by oral administration of 200 mg/kg of the compounds shown in Table 6. After 20 hours from the administration, the blood samples were collected by decapitation. Cholesterol and triglyceride in the serum were determined in a similar manner to that used in (2, ii) to give the results shown in Table 6.
(II) Activity in the decreasing phase:
Hyperlipemia occurred by administering Triton (WR-1339) in a similar manner to that in (i). After 25 hours, 200 mg/kg of the compounds were orally administered to the rats. After 30 hours from the injection of Triton, the blood samples were collected by decapitation.

Data set [6] has as its system hyperlipemia induced by Triton. Briefly: Effect on hyperlipemia induced by Triton in rats: activity in the increasing phase. Format: in vivo, rats (male Wistar strain). Here is the method:
as §1
(i) Activity in the increasing phase:
as §2

In another data set the test system is Cholesterol in the serum. Briefly: Cholesterol-lowering activity on normal rats of Wistar strain (serum cholesterol, liver weight). Format: in vivo, rats (male Wistar strain). The settings on record: 0.3% in diet; for B - Ratio of decrease of liver weight: continuous administration for 4 days. Here is the method: (3) Cholesteral-lowering activity on normal rats of Wistar strain:
(i) 22 Groups, each consisting of 5 rats (male Wistar strain, weight -- 150 to 180 g) were used for the test and control groups. After this, the blood samples were collected by decapitation and then the corpuscle was removed by centrifugation. Cholesterol in the serum was determined by Zurkowski's method modified by Shibata and also the liver was excised and weighed. The results are shown in Table 4 wherein the ratio of 100% denotes the amount of chloresterol and the weight of the liver of normal rats fed with powdery diet without the addition of the compound.

The next data set is described as follows: Acute toxicity in rats. The settings on record: in vivo; rat, oral administration, after one week; read-out: Acute Toxicity (LD50), C. Here is the method:
(§3) (1) Acute toxicity and tonic convulsion in hind paw:
(§4) The acute toxicity and tonic convulsion occured by stimulus by hand touch were determined in the following manner to give the results shown in Table 2.
(b) Acute toxicity in rats:
28 Groups, each consisting of 5 rats (male Wistar strain, weight -- 200 g), were used for the test and control groups. The compounds shown in Table 2 were orally administered to the rats. After one week, the survival ratio was measured.

A further data set in a line: Acute toxicity in mice. The settings on record: in vivo, mouse, after one week. As for the experimental part: as §3, §4
(a) Acute toxicity in mice:
38 Groups, each consisting of 5 mice (male dd-strain, weight -- 18 to 24 g), were used for the test and control groups. The compounds shown in Table 2 were administered orally or intraperitoneally to the mice. After one week, the survival ratio was measured.

Setting [7] is: continuous administration for 4 days.
Setting [8] is: serum, decreasing phase, 200 mg/kg oral 25 hours after Triton, sampled at 30 hours.
[9] abbreviates: serum, increasing phase, 200 mg/kg oral, 20 hours.
Setting [10] is: continuous administration for 14 days.
Where [11] appears, read: ip, intraperitoneal administration, read-out: Acute Toxicity (LD50), B.
[12] abbreviates: oral administration, read-out: Acute Toxicity (LD50), A.

As usually defined, the LD50 is the dose at which mortality reaches 50%. Regarding `Cc1ccc(CSC(=O)N[C@@H](Cc2ccccc2)C(=O)O)cc1` [Compound 1, N-(4-methylbenzylthiocarbonyl)-L-phenylalanine], the “cholesterol-lowering activity (in words)” value in data set [1] is “have a cholesterol-lowering activity”. In addition, in [1] (average of 3 times cross-over), the “Decrease Ratio of Cholesterol” value is reported as 12.2% and the “Decrease Ratio of Triglyceride” value is on record as 10.8%. For the same compound, the inhibition in vivo at 100 mg/kg in data set [2] was 55%. Further, in data set [3], the “activity on lowering triglyceride and cholesterol (in words)” value was “have an activity on lowering triglyceride and cholesterol”. Besides, in data set [3] (serum, 15% glycerol in water), the Cholesterol was 44.5 mg/dL; the “Cholesterol, Ratio of decrease” value amounted to 21.0%; the Triglyceride turned out to be 148 mg/dL; the “Triglyceride, Ratio of decrease” value is listed as 70.0%. In [4] (setting [7]), the “A - Ratio of decrease of triglyceride” value turned out to be 42.0%, the “B - Ratio of decrease of phospholipid” value stood at 13.8% and the “C - Ratio of decrease of free fatty acid” value came to 27.0%. In addition, the “lowering activity on lipids other than cholesterol (in words)” value in [4] (normal rats, 4 days) is listed as “have a lowering activity on lipids other than cholesterol”. Further, in data set [5] (compared with Clofibrate), the “activity in the decreasing phase (in words)” value is “superior to that of Clofibrate”. Moreover, in data set [5] (setting [8]), the Cholesterol turned out to be 103 mg/dL; the “Cholesterol, Ratio of decrease” value is 30.7%; the Triglyceride is 141 mg/dL; the “Triglyceride, Ratio of decrease” value came out at 59.4%. For the same compound, in [6] (Clofibrate, Compounds 1 and 2 compared with each other), the “activity in the developing phase (in words)” value is listed as “substantially equal”. Further, in [6] (setting [9]), the Cholesterol was 198 mg/dL; the “Cholesterol, Ratio of decrease” value is 22.7%; the Triglyceride was found to be 940 mg/dL; the “Triglyceride, Ratio of decrease” value is given as 29.7%. Besides, the “B - Ratio of decrease of liver weight” value with Cholesterol in the serum is listed as 14.8%. In the data set with Cholesterol in the serum (setting [10]), the “C - Ratio of decrease of cholesterol” value is reported as 26.1% and the “D - Ratio of increase of liver weight” value amounted to 33.1%. Also, in the data set “Acute toxicity in rats”, the 50% lethal dose (LD50) at 168 h was more than 200 mg/kg. For the same compound, the median lethal dose (LD50) at 168 h in the data set “Acute toxicity in mice” (setting [11]) is more than 100 mg/kg. Besides, the median lethal dose (LD50) at 168 h in the data set “Acute toxicity in mice” (setting [12]) is more than 4000 mg/kg.

Regarding `COC(=O)[C@H](Cc1ccccc1)NC(=O)SCc1c(C)cccc1C` [Compound 25], in [2], the inhibition in vivo at 100 mg/kg was found to be 37%. Also, in the data set on Cholesterol in the serum, the “B - Ratio of decrease of liver weight” value is 45.3%. For the same compound, the 50% lethal dose (LD50) at 168 h in “Acute toxicity in rats” is more than 100 mg/kg; in the data set “Acute toxicity in mice” (setting [12]), more than 1000 mg/kg.

In the case of `COC(=O)[C@H](Cc1ccccc1)NC(=O)SCc1cc(C)ccc1C` [Compound 27, N-(2,5-dimethylbenzylthiocarbonyl)-L-phenylalanine methylester], the inhibition in vivo at 100 mg/kg in data set [2] was 30%. Moreover, the “B - Ratio of decrease of liver weight” value in the data set with Cholesterol in the serum was -0.2%. The LD50 at 168 h in “Acute toxicity in rats” is more than 100 mg/kg; in the data set “Acute toxicity in mice” (setting [12]), more than 1000 mg/kg.

As to `COC(=O)[C@H](Cc1ccccc1)NC(=O)SCc1ccc([N+](=O)[O-])cc1` [Compound 15, N-(4-nitrobenzylthiocarbonyl)-L-phenylalanine methylester], the inhibition in vivo at 100 mg/kg in data set [2] was determined as 29%. Besides, in the data set with Cholesterol in the serum, the “B - Ratio of decrease of liver weight” value was determined as 38.9%. For the same compound, the LD50 at 168 h was more than 100 mg/kg in “Acute toxicity in rats” and more than 1000 mg/kg in “Acute toxicity in mice” (setting [12]).

For the compound `COC(=O)[C@H](Cc1ccccc1)NC(=O)SCc1ccc(OC)cc1` [Compound 13, N-(4-methoxybenzylthiocarbonyl)-L-phenylalanine methylester], the inhibition in vivo at 100 mg/kg in [2] turned out to be 56%. In the data set on Cholesterol in the serum, the “B - Ratio of decrease of liver weight” value was determined as 38%. The LD50 at 168 h is more than 100 mg/kg in “Acute toxicity in rats”, more than 100 mg/kg in the data set “Acute toxicity in mice” (setting [11]) and more than 1000 mg/kg in the data set “Acute toxicity in mice” (setting [12]).

Turning to `COC(=O)[C@H](Cc1ccccc1)NC(=O)SCc1cccc2ccccc12` [Compound 32], the inhibition in vivo at 100 mg/kg in data set [2] stood at 56%. In the data set on Cholesterol in the serum, the “B - Ratio of decrease of liver weight” value is 12.4%. Besides, the LD50 at 168 h in the data set “Acute toxicity in rats” was more than 100 mg/kg; in the data set “Acute toxicity in mice” (setting [12]), more than 1000 mg/kg.

Take `O=C(N[C@@H](Cc1ccccc1)C(=O)O)SCc1ccc([N+](=O)[O-])cc1` [Compound 14, N-(4-nitrobenzylthiocarbonyl)-L-phenylalanine]: in data set [2], the inhibition in vivo at 100 mg/kg was found to be 66%. Besides, the “B - Ratio of decrease of liver weight” value with Cholesterol in the serum is reported as 48.0%. Besides, the LD50 at 168 h in “Acute toxicity in rats” was more than 100 mg/kg; in “Acute toxicity in mice” (setting [12]) it was more than 1000 mg/kg.
